Laboratory results reported in patent US20070128217A1 (priority 2003, published 2007).

Tests used:
[1] = test system: control sera (pooled serum of ten healthy LUMC hospital workers; commercial negative donor pooled serum from the Dutch bloodbank); type: binding, human; set-up: Binding of Control serum LUMC to linear peptides / Binding of Control serum Blood-bank to linear peptides / Binding of Control serum LUMC to looped peptides / Binding of Control Serum Blood-Bank to Looped peptides / Binding of Control serum LUMC to linear peptides of the protein M of SARS-CoV Urbani / Binding of Control serum Blood-bank to linear peptides of the protein M of SARS-CoV Urbani / Binding of Control serum LUMC to looped peptides of the protein M of SARS-CoV Urbani / Binding of Control Serum Blood-Bank to Looped peptides of the protein M of SARS-CoV Urbani: unit not given here
[2] = test system: rabbit serum obtained by immunizing a rabbit with the SARS-CoV strain Frankfurt 1; type: binding; set-up: Binding of a rabbit serum to linear peptides / Binding of a rabbit serum to looped peptides / Rabbit serum linear peptides / Rabbit serum looped peptides / Binding of a rabbit serum to linear peptides of protein N of SARS-CoV Urbani (Rabbit serum linear peptides) / Binding of a rabbit serum to looped/cyclic peptides of protein N of SARS-CoV Urbani (Rabbit serum looped peptides): unit not given here
[3] = test system: antibodies in sera from SARS patients (sera 1a, 1b, 2, 6, 37, 62, London, SARS-yellow, SARS-green); type: binding, human; set-up: Binding of serum 6 to linear peptides of protein X1 of SARS-CoV Urbani / Binding of serum 37 to linear peptides of protein X1 of SARS-CoV Urbani / Binding of serum 6 to looped/cyclic peptide (PEPSCAN-ELISA) / Binding of serum 37 to looped/cyclic peptide (PEPSCAN-ELISA) / Binding of serum 37 to looped/cyclic peptides of protein X1 of SARS-CoV Urbani / Binding of serum 6 to linear peptides of protein X2 / Binding of serum 37 to linear peptides of protein X2 / Binding of serum 37 to looped/cyclic peptides of protein X2 of SARS-CoV Urbani / Binding of serum 6 to linear peptides of protein M of SARS-CoV Urbani / Binding of serum 37 to linear peptides of protein M of SARS-CoV Urbani / Binding of serum 6 to looped/cyclic peptides of protein M of SARS-CoV Urbani / Binding of serum 37 to looped/cyclic peptides of protein M of SARS-CoV Urbani / Binding of serum 6 to linear peptides of protein X3 of SARS-CoV Urbani / Binding of serum 37 to linear peptides of protein X3 of SARS-CoV Urbani / Binding of serum 37 to looped/cyclic peptides of protein X3 of SARS-CoV Urbani / Binding of serum 6 to linear peptides of protein X4 of SARS-CoV Urbani / Binding of serum 37 to linear peptides of protein X4 of SARS-CoV Urbani / Binding of serum 37 to looped/cyclic peptides of protein X4 of SARS-CoV Urbani / Binding of serum 6 to linear peptides of protein X5 of SARS-CoV Urbani / Binding of serum 37 to linear peptides of protein X5 of SARS-CoV Urbani / Binding of serum 37 to looped/cyclic peptides of protein X5 of SARS-CoV Urbani / Binding of serum 6 to linear peptides of protein N of SARS-CoV Urbani / Binding of serum 37 to linear peptides of protein N of SARS-CoV Urbani / Binding of serum 6 to linear peptide (PEPSCAN-ELISA) / Binding of serum 1a to looped/cyclic peptides of protein N of SARS-CoV Urbani / Binding of serum 1b to looped/cyclic peptides of protein N of SARS-CoV Urbani / Binding of serum 2 to looped/cyclic peptides of protein N of SARS-CoV Urbani / Binding of serum 6 to looped/cyclic peptides of protein N of SARS-CoV Urbani / Binding of serum 37 to looped/cyclic peptides of protein N of SARS-CoV Urbani / Binding of serum 62 to looped/cyclic peptides of protein N of SARS-CoV Urbani / Binding of serum London to looped/cyclic peptides of protein N of SARS-CoV Urbani / Binding of serum SARS-green to looped/cyclic peptides of protein N of SARS-CoV Urbani: unit not given here

Row | Sequence | Binding of serum 1a to looped/cyclic peptide (PEPSCAN-ELISA) [3] | Binding of serum 1b to looped/cyclic peptide (PEPSCAN-ELISA) [3] | Binding of serum 2 to looped/cyclic peptide (PEPSCAN-ELISA) [3] | Binding of serum 6 to looped/cyclic peptide (PEPSCAN-ELISA) [3] | Binding of serum 37 to looped/cyclic peptide (PEPSCAN-ELISA) [3] | Binding of serum 62 to looped/cyclic peptide (PEPSCAN-ELISA) [3] | Binding of serum London to looped/cyclic peptide (PEPSCAN-ELISA) [3] | Binding of serum SARS-green to looped/cyclic peptide (PEPSCAN-ELISA) [3] | Binding of serum SARS-yellow to looped/cyclic peptide (PEPSCAN-ELISA) [3] | Recognition of the peptide by the rabbit serum [2] | Binding of a rabbit serum to linear peptides [2] | Binding of a rabbit serum to looped peptides [2] | other results
1 | ADNKFALTCTSTHFA | – | – | – | – | – | – | – | – | – | – | – | – | Binding of Control Serum Blood-Bank to Looped peptides [1]: 0.7; Binding of Control serum Blood-bank to linear peptides [1]: 0.8; Binding of Control serum LUMC to linear peptides [1]: 0.9; Binding of Control serum LUMC to looped peptides [1]: 0.9; Rabbit serum linear peptides [2]: 0.7; Rabbit serum looped peptides [2]: 0.2
2 | ATKIIALNKRWQLAL | 0.6 | 0.4 | 0.5 | 0.5 | 0.6 | 0.7 | 0.3 | 0.3 | 0.6 | recognized | – | – | Binding of serum 1a to linear peptides of protein X1 of SARS-CoV Urbani [3]: 0.7; Binding of serum 1b to linear peptides of protein X1 of SARS-CoV Urbani [3]: 0.6; Binding of serum 2 to linear peptides of protein X1 of SARS-CoV Urbani [3]: 0.6; Binding of serum 6 to linear peptides of protein X1 of SARS-CoV Urbani [3]: 0.7; Binding of serum 37 to linear peptides of protein X1 of SARS-CoV Urbani [3]: 0.8; Binding of serum 62 to linear peptides of protein X1 of SARS-CoV Urbani [3]: 0.8; Binding of serum London to linear peptides of protein X1 of SARS-CoV Urbani [3]: 0.4; Binding of serum SARS-green to linear peptides of protein X1 of SARS-CoV Urbani [3]: 0.3; Binding of serum SARS-yellow to linear peptides of protein X1 of SARS-CoV Urbani [3]: 0.7
3 | AVFQSATKIIALNKR | 0.4 | 0.4 | 0.6 | 0.7 | 0.6 | 0.6 | 0.9 | 0.2 | 0.4 | recognized | – | – | Binding of serum 1a to linear peptides of protein X1 of SARS-CoV Urbani [3]: 0.8; Binding of serum 1b to linear peptides of protein X1 of SARS-CoV Urbani [3]: 0.6; Binding of serum 2 to linear peptides of protein X1 of SARS-CoV Urbani [3]: 0.6; Binding of serum 6 to linear peptides of protein X1 of SARS-CoV Urbani [3]: 0.8; Binding of serum 37 to linear peptides of protein X1 of SARS-CoV Urbani [3]: 0.7; Binding of serum 62 to linear peptides of protein X1 of SARS-CoV Urbani [3]: 0.6; Binding of serum London to linear peptides of protein X1 of SARS-CoV Urbani [3]: 0.3; Binding of serum SARS-green to linear peptides of protein X1 of SARS-CoV Urbani [3]: 0.3; Binding of serum SARS-yellow to linear peptides of protein X1 of SARS-CoV Urbani [3]: 0.5
4 | FQSATKIIALNKRWQ | 0.5 | 0.3 | 0.4 | 0.5 | 0.5 | 0.5 | 0.2 | 0.3 | 0.2 | recognized | – | – | Binding of serum 1a to linear peptides of protein X1 of SARS-CoV Urbani [3]: 0.8; Binding of serum 1b to linear peptides of protein X1 of SARS-CoV Urbani [3]: 0.6; Binding of serum 2 to linear peptides of protein X1 of SARS-CoV Urbani [3]: 0.6; Binding of serum 6 to linear peptides of protein X1 of SARS-CoV Urbani [3]: 0.6; Binding of serum 37 to linear peptides of protein X1 of SARS-CoV Urbani [3]: 0.7; Binding of serum 62 to linear peptides of protein X1 of SARS-CoV Urbani [3]: 0.7; Binding of serum London to linear peptides of protein X1 of SARS-CoV Urbani [3]: 0.3; Binding of serum SARS-green to linear peptides of protein X1 of SARS-CoV Urbani [3]: 0.4; Binding of serum SARS-yellow to linear peptides of protein X1 of SARS-CoV Urbani [3]: 0.4
5 | IALNKRWQLALYKGF | 0.5 | 0.4 | 0.5 | 0.4 | 0.5 | 0.7 | 0.3 | 0.4 | 0.6 | recognized | – | – | Binding of serum 1a to linear peptides of protein X1 of SARS-CoV Urbani [3]: 0.8; Binding of serum 1b to linear peptides of protein X1 of SARS-CoV Urbani [3]: 0.7; Binding of serum 2 to linear peptides of protein X1 of SARS-CoV Urbani [3]: 0.6; Binding of serum 6 to linear peptides of protein X1 of SARS-CoV Urbani [3]: 0.9; Binding of serum 37 to linear peptides of protein X1 of SARS-CoV Urbani [3]: 0.7; Binding of serum 62 to linear peptides of protein X1 of SARS-CoV Urbani [3]: 0.7; Binding of serum London to linear peptides of protein X1 of SARS-CoV Urbani [3]: 0.3; Binding of serum SARS-green to linear peptides of protein X1 of SARS-CoV Urbani [3]: 0.4; Binding of serum SARS-yellow to linear peptides of protein X1 of SARS-CoV Urbani [3]: 0.5
6 | KIIALNKRWQLALYK | 0.7 | 0.5 | 0.7 | 0.8 | 0.8 | 0.7 | 0.3 | 0.3 | 0.5 | recognized | – | – | Binding of serum 1a to linear peptides of protein X1 of SARS-CoV Urbani [3]: 0.8; Binding of serum 1b to linear peptides of protein X1 of SARS-CoV Urbani [3]: 0.7; Binding of serum 2 to linear peptides of protein X1 of SARS-CoV Urbani [3]: 0.7; Binding of serum 6 to linear peptides of protein X1 of SARS-CoV Urbani [3]: 1.0; Binding of serum 37 to linear peptides of protein X1 of SARS-CoV Urbani [3]: 0.8; Binding of serum 62 to linear peptides of protein X1 of SARS-CoV Urbani [3]: 0.8; Binding of serum London to linear peptides of protein X1 of SARS-CoV Urbani [3]: 0.4; Binding of serum SARS-green to linear peptides of protein X1 of SARS-CoV Urbani [3]: 0.4; Binding of serum SARS-yellow to linear peptides of protein X1 of SARS-CoV Urbani [3]: 0.5
7 | NASPASTVHATATIP | – | – | – | – | – | – | – | – | – | – | 0.6 | 0.3 | –
8 | NSPFHPLADNKFALT | – | – | – | – | – | – | – | – | – | – | – | – | Rabbit serum linear peptides [2]: 0.5; Rabbit serum looped peptides [2]: 0.7
9 | PASTVHATATIPLQA | – | – | – | – | – | – | – | – | – | – | 0.9 | 0.5 | –
10 | PTTLFAGTHITMTTV | – | – | – | – | – | – | – | – | – | – | 0.8 | 0.4 | –
11 | RCWLCWKCKSKNPLL | 0.7 | 0.5 | 0.7 | 0.8 | 0.8 | 0.7 | 0.4 | 0.4 | 0.7 | – | 0.1 | 0.7 | Recognition of the peptide by sera of SARS-CoV infected individuals, and form (linear, looped/cyclic) in which it is recognized [3]: recognized in linear form
12 | SPASTVHATATIPLQ | – | – | – | – | – | – | – | – | – | – | 1.0 | 0.4 | –
13 | STVHATATIPLQASL | – | – | – | – | – | – | – | – | – | – | 0.6 | 0.5 | –
14 | TITVEELKQLLEQWN | – | – | – | – | – | – | – | – | – | recognized | – | – | –
15 | TLFAGTHITMTTVYH | – | – | – | – | – | – | – | – | – | – | 0.7 | 0.5 | –
16 | TTLFAGTHITMTTVY | – | – | – | – | – | – | – | – | – | – | 0.6 | 0.3 | –
17 | VEELKQLLEQWNLVI | – | – | – | – | – | – | – | – | – | recognized | – | – | –
18 | YEGNSPFHPLADNKF | – | – | – | – | – | – | – | – | – | – | – | – | Rabbit serum linear peptides [2]: 0.6; Rabbit serum looped peptides [2]: 0.5
19 | YLHEGHQTAAFRDVL | – | – | – | – | – | – | – | – | – | – | – | – | Rabbit serum linear peptides [2]: 0.2; Rabbit serum looped peptides [2]: 0.6
